Experimental data: US6737383B1, “Herbicidal oxadiazolidines” (priority 1999, dated 2004)

Legend:
giant foxtail = test: Test B pre/postemergence giant foxtail; type: in vivo, Setaria faberii
How it was run: (§1)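 Test chemicals in a non-phytotoxic solvent mixture with surfactant were sprayed preemergence onto planted seeds and postemergence onto plants 2 to 18 cm tall (1- to 4-leaf stage). After twelve to sixteen days in a greenhouse, injury was visually rated against untreated controls from 0 (no effect) to 10 (complete control).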

bedstraw = test: Test B pre/postemergence bedstraw; type: in vivo, Galium aparine
How it was run: as §1

corn = test: Test B pre/postemergence corn; type: in vivo, Zea mays
How it was run: as §1

rape = test: Test B pre/postemergence rape; type: in vivo, Brassica napus
How it was run: as §1

purple nutsedge = test: Test B pre/postemergence purple nutsedge; type: in vivo, Cyperus rotundus
How it was run: as §1

bamyardgrass = test: Test B flood test barnyardgrass; type: in vivo, Echinochloa crus-galli
How it was run: (§2)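 Each value is a visual injury score relative to controls, with 10 meaning complete control and 0 no effect. Evaluation took place twelve to sixteen days after the 2-leaf-stage plants were treated and kept in the greenhouse.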

duck salad = test: Test B flood test duck salad; type: in vivo, Heteranthera limosa
How it was run: as §2

soybean = test: Test B pre/postemergence soybean; type: in vivo, Glycine max
How it was run: as §1

smallflower flatsedge = test: Test B flood test smallflower flatsedge; type: in vivo, Cyperus difformis
How it was run: as §2

cocklebur = test: Test B pre/postemergence cocklebur; type: in vivo, Xanthium strumarium
How it was run: as §1

sugar beet = test: Test B pre/postemergence sugar beet; type: in vivo, Beta vulgaris
How it was run: as §1

morningglory = test: Test B pre/postemergence morningglory; type: in vivo, Ipomoea hederacea
How it was run: as §1

surinam grass = test: Test B pre/postemergence surinam grass; type: in vivo, Brachiaria decumbens
How it was run: as §1

pigweed = test: Test B pre/postemergence pigweed; type: in vivo, Amaranthus retroflexus
How it was run: as §1

velvetleaf = test: Test B pre/postemergence velvetleaf; type: in vivo, Abutilon theophrasti
How it was run: as §1

blackgrass = test: Test B pre/postemergence blackgrass; type: in vivo, Alopecurus myosuroides
How it was run: as §1

[1] = Postemergence, Rate 125 g/ha, scale of 0 to 10 where 0 is no effect and 10 is complete control
[2] = Preemergence, Rate 62 g/ha, scale 0 to 10 (0 no effect, 10 complete control)
[3] = Preemergence, Rate 125 g/ha, 0 is no effect, 10 is complete control
[4] = Preemergence, Rate 250 g/ha, scale 0 to 10, 0 is no effect, 10 is complete control
[5] = Preemergence, Rate 500 g/ha, scale 0 to 10 (0 no effect, 10 complete control)
[6] = Rate 62 g/ha, Postemergence, scale of 0 to 10 where 0 is no effect and 10 is complete control
[7] = Rate 250 g/ha, Postemergence, scale 0 to 10, 0 is no effect, 10 is complete control
[8] = Rate 500 g/ha, Postemergence, scale 0 to 10
[9] = Postemergence (flood test species), Rate 125 g/ha, scale of 0 to 10 where 0 is no effect and 10 is complete control
[10] = Rate 62 g/ha, Postemergence section, flood test species, scale of 0 to 10 where 0 is no effect and 10 is complete control
[11] = Rate 250 g/ha, Postemergence (flood test), scale 0 to 10, 0 is no effect, 10 is complete control
[12] = Rate 500 g/ha, listed under Postemergence (flood test species), scale 0 to 10

C=CCn1c(=O)on(C(=O)N(c2ccc(F)cc2F)C(C)C)c1=O [Compound 151]
3: Bedstraw plant response rating (bedstraw; [1]) | Bedstraw plant response rating (bedstraw; [6]) | Nutsedge plant response rating (purple nutsedge; [1]) | Soybean plant response rating (soybean; [4]) | Soybean plant response rating (soybean; [6]) | Sugarbeets plant response rating (sugar beet; [1]) | Plant response rating, Sugarbeets (sugar beet; [7]) | Sugarbeets plant response rating (sugar beet; [8]) | B. signalgrass plant response rating (surinam grass; [6]) | Redroot pigweed plant response rating (pigweed; [1]) | Redroot pigweed plant response rating (pigweed; [6]) | Velvetleaf plant response rating (velvetleaf; [6]) | Plant response rating, Velvetleaf (velvetleaf; [7])
9: Giant foxtail plant response rating (giant foxtail; [2]) | Corn plant response rating (corn; [5]) | Blackgrass plant response rating (0 to 10 scale) (blackgrass; [3]) | Blackgrass plant response rating (blackgrass; [8])
4: Plant response rating, Bedstraw (bedstraw; [7]) | Soybean plant response rating (soybean; [1]) | Plant response rating, Soybean (soybean; [7]) | Soybean plant response rating (soybean; [8]) | Morningglory plant response rating (morningglory; [6]) | B. signalgrass plant response rating (surinam grass; [1]) | B. signalgrass plant response rating (surinam grass; [2])
1: Sugarbeets plant response rating (sugar beet; [2])
7: Giant foxtail plant response rating (giant foxtail; [6]) | Bedstraw plant response rating (bedstraw; Rate 500 g/ha, Postemergence, scale 0 to 10, 0 no effect, 10 complete control) | Soybean plant response rating (soybean; [5]) | B. signalgrass plant response rating (surinam grass; [5]) | B. signalgrass plant response rating (surinam grass; Rate 500 g/ha, Postemergence, scale of 0 to 10 where 0 is no effect and 10 is complete control) | Redroot pigweed plant response rating (pigweed; [8])
2: Plant response rating, Corn (corn; [7]) | Rape plant response rating (rape; [2]) | Rape plant response rating (rape; [8]) | Nutsedge plant response rating (purple nutsedge; [5]) | Nutsedge plant response rating (purple nutsedge; [6]) | Ducksalad plant response rating (duck salad; [12]) | Plant response rating, Cocklebur (cocklebur; [7]) | Cocklebur plant response rating (cocklebur; [8]) | Sugarbeets plant response rating (sugar beet; [6])
10: Giant foxtail plant response rating (0 to 10 scale) (giant foxtail; [3]) | Giant foxtail plant response rating (giant foxtail; [4]) | Giant foxtail plant response rating (giant foxtail; [5]) | Rape plant response rating (rape; [4]) | Rape plant response rating (rape; [5]) | Sugarbeets plant response rating (sugar beet; [4]) | Sugarbeets plant response rating (sugar beet; [5]) | Redroot pigweed plant response rating (pigweed; [2]) | Redroot pigweed plant response rating (0 to 10 scale) (pigweed; [3]) | Redroot pigweed plant response rating (pigweed; [4]) | Redroot pigweed plant response rating (pigweed; [5]) | Velvetleaf plant response rating (velvetleaf; [4]) | Velvetleaf plant response rating (velvetleaf; [5]) | Blackgrass plant response rating (blackgrass; [4]) | Blackgrass plant response rating (blackgrass; [5])
6: Corn plant response rating (corn; [8]) | Plant response rating, Morningglory (morningglory; [7]) | Morningglory plant response rating (morningglory; [8]) | Plant response rating, B. signalgrass (surinam grass; [7]) | Velvetleaf plant response rating (velvetleaf; [2])
0: Bedstraw plant response rating (bedstraw; [2]) | Bedstraw plant response rating (0 to 10 scale) (bedstraw; [3]) | Bedstraw plant response rating (bedstraw; [4]) | Bedstraw plant response rating (bedstraw; [5]) | Corn plant response rating (corn; [1]) | Corn plant response rating (corn; [2]) | Corn plant response rating (0 to 10 scale) (corn; [3]) | Corn plant response rating (corn; [6]) | Rape plant response rating (rape; [1]) | Rape plant response rating (rape; [6]) | Plant response rating, Rape (rape; [7]) | Nutsedge plant response rating (purple nutsedge; [2]) | Nutsedge plant response rating (0 to 10 scale) (purple nutsedge; [3]) | Nutsedge plant response rating (purple nutsedge; [4]) | Barnyardgrass plant response rating (bamyardgrass; [9]) | Barnyardgrass plant response rating (bamyardgrass; [10]) | Plant response rating, Barnyardgrass (bamyardgrass; [11]) | Ducksalad plant response rating (duck salad; [9]) | Ducksalad plant response rating (duck salad; [10]) | Plant response rating, Ducksalad (duck salad; [11]) | Soybean plant response rating (soybean; [2]) | Soybean plant response rating (0 to 10 scale) (soybean; [3]) | S. Flatsedge plant response rating (smallflower flatsedge; [9]) | S. Flatsedge plant response rating (smallflower flatsedge; [10]) | Plant response rating, S. Flatsedge (smallflower flatsedge; [11]) | Cocklebur plant response rating (cocklebur; [1]) | Cocklebur plant response rating (cocklebur; [2]) | Cocklebur plant response rating (cocklebur; [4]) | Cocklebur plant response rating (cocklebur; [5]) | Cocklebur plant response rating (cocklebur; [6]) | Morningglory plant response rating (morningglory; [2]) | Morningglory plant response rating (0 to 10 scale) (morningglory; [3]) | Morningglory plant response rating (morningglory; [4]) | Morningglory plant response rating (morningglory; [5])
5: Corn plant response rating (corn; [4]) | Plant response rating, Nutsedge (purple nutsedge; [7]) | Nutsedge plant response rating (purple nutsedge; [8]) | B. signalgrass plant response rating (surinam grass; [4]) | Plant response rating, Redroot pigweed (pigweed; [7]) | Velvetleaf plant response rating (velvetleaf; [8])
8: Giant foxtail plant response rating (giant foxtail; [1]) | Plant response rating, Giant foxtail (giant foxtail; [7]) | Giant foxtail plant response rating (giant foxtail; [8]) | Rape plant response rating (0 to 10 scale) (rape; [3]) | Barnyardgrass plant response rating (bamyardgrass; Rate 500 g/ha, listed under Postemergence (flood test species), scale 0 to 10, 0 no effect, 10 complete control) | S. Flatsedge plant response rating (smallflower flatsedge; [12]) | Sugarbeets plant response rating (0 to 10 scale) (sugar beet; [3]) | Velvetleaf plant response rating (0 to 10 scale) (velvetleaf; [3]) | Blackgrass plant response rating (blackgrass; [1]) | Blackgrass plant response rating (blackgrass; [2]) | Blackgrass plant response rating (blackgrass; [6]) | Plant response rating, Blackgrass (blackgrass; [7])
